Experimental data taken from patent publication US20260226068A1, “IMIDAZOTRIAZINE IL-17A MODULATORS AND USES THEREOF” (DICE ALPHA, INC., priority 2023, published 2026).
pIC50: −log10 of the molar value.

Columns and labels:
IL-17A/A = biological target: T1, IL-17A/A (Homo sapiens, UniProt Q16552); assay: IL-17A/A HEK-Blue cell assay (SEAP reporter); type: cell-based; settings: HEK-Blue IL-17A reporter cells, IL17A/A 5 ng/mL, 20 hours, SEAP read at A630; read-out: HEK-Blue IL17AA (IC50 for IL-17A/A inhibition)
T1 construct: purchased Genscript Z03228
T1 sequence (Q16552 24-155): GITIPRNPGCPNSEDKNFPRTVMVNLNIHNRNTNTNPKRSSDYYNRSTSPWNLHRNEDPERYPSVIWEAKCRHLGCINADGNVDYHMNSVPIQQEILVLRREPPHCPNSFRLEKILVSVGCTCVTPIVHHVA

IL-17A/F = biological target: T2, IL-17A/F (Homo sapiens, UniProt Q16552+Q96PD4); assay: IL-17A/F HEK-Blue cell assay (SEAP reporter); type: cell-based; settings: HEK-Blue IL-17A reporter cells, IL17A/F 5 ng/mL, 20 hours, SEAP read at A630; read-out: HEK-Blue IL17AF (IC50 for IL-17A/F inhibition)
T2 construct: purchased R&D Systems
T2 sequence (Q16552 24-155): T1 sequence (Q16552 24-155)
T2 sequence (Q96PD4 31-163): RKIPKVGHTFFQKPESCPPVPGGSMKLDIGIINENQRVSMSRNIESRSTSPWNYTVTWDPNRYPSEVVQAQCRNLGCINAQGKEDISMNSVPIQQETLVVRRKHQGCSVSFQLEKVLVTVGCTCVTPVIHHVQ

CCn1nccc1C(=O)N[C@H](c1cn2nc(C[C@H]3C[C@@H](C(F)(F)F)CNC3=O)c(N3CCN(C)CC3)nc2n1)C1CCC(F)(F)CC1 [Compound 296, N—((S)-(4,4-difluorocyclohexyl)(3-(4-methylpiperazin-1-yl)-2-(((3R,5R)-2-oxo-5-(trifluoromethyl)piperidin-3-yl)methyl)imidazo[1,2-b][1,2,4]triazin-6-yl)methyl)-1-ethyl-1H-pyrazole-5-carboxamide]
pIC50 (IL-17A/A): > 7.00 | pIC50 (IL-17A/F): 6.00 to 7.00

CCn1nccc1C(=O)N[C@H](c1cn2nc(C[C@H]3CC(F)(F)CNC3=O)c(C3CCOCC3)nc2n1)[C@H]1CC[C@H](C)CC1 [Compound 297]
pIC50 (IL-17A/A): > 7.00 | pIC50 (IL-17A/F): 6.00 to 7.00

CCn1nccc1C(=O)N[C@H](c1cn2nc(C[C@H]3C[C@@H](C(F)(F)F)CNC3=O)c(N3CCN(C)[C@H](C)C3)nc2n1)C1CCC(F)(F)CC1 [Compound 298, N—((S)-(4,4-difluorocyclohexyl)(3-((R)-3,4-dimethylpiperazin-1-yl)-2-(((3R,5R)-2-oxo-5-(trifluoromethyl)piperidin-3-yl)methyl)imidazo[1,2-b][1,2,4]triazin-6-yl)methyl)-1-ethyl-1H-pyrazole-5-carboxamide]
pIC50 (IL-17A/A): > 7.00 | pIC50 (IL-17A/F): > 7.00

CCn1nccc1C(=O)N[C@H](c1cn2nc(C[C@H]3C[C@@H](C(F)(F)F)CNC3=O)c(C3CCNCC3)nc2n1)C1CCC(F)(F)CC1 [Compound 299, N—((S)-(4,4-difluorocyclohexyl)(2-(((3R,5R)-2-oxo-5-(trifluoromethyl)piperidin-3-yl)methyl)-3-(piperidin-4-yl)imidazo[1,2-b][1,2,4]triazin-6-yl)methyl)-1-ethyl-1H-pyrazole-5-carboxamide]
pIC50 (IL-17A/A): 6.00 to 7.00 | pIC50 (IL-17A/F): < 6.00

CCn1nccc1C(=O)N[C@H](c1cn2nc(C[C@H]3C[C@@H](C(F)(F)F)CNC3=O)c(C3CCN(C)CC3)nc2n1)C1CCC(F)(F)CC1 [Compound 300, N—((S)-(4,4-difluorocyclohexyl)(3-(1-methylpiperidin-4-yl)-2-(((3R,5R)-2-oxo-5-(trifluoromethyl)piperidin-3-yl)methyl)imidazo[1,2-b][1,2,4]triazin-6-yl)methyl)-1-ethyl-1H-pyrazole-5-carboxamide]
pIC50 (IL-17A/A): 6.00 to 7.00 | pIC50 (IL-17A/F): < 6.00

CCn1nccc1C(=O)N[C@H](c1cn2nc(C[C@H]3C[C@@H](C(F)(F)F)CNC3=O)c(C3CNC3)nc2n1)C1CCC(F)(F)CC1 [Compound 301, N—((S)-(3-(azetidin-3-yl)-2-(((3R,5R)-2-oxo-5-(trifluoromethyl)piperidin-3-yl)methyl)imidazo[1,2-b][1,2,4]triazin-6-yl)(4,4-difluorocyclohexyl)methyl)-1-ethyl-1H-pyrazole-5-carboxamide]
pIC50 (IL-17A/A): > 7.00 | pIC50 (IL-17A/F): < 6.00

CCn1nccc1C(=O)N[C@H](c1cn2nc(C[C@H]3C[C@@H](C(F)(F)F)CNC3=O)c(C3CN(C)C3)nc2n1)C1CCC(F)(F)CC1 [Compound 302, N—((S)-(4,4-difluorocyclohexyl)(3-(1-methylazetidin-3-yl)-2-(((3R,5R)-2-oxo-5-(trifluoromethyl)piperidin-3-yl)methyl)imidazo[1,2-b][1,2,4]triazin-6-yl)methyl)-1-ethyl-1H-pyrazole-5-carboxamide]
pIC50 (IL-17A/A): > 7.00 | pIC50 (IL-17A/F): < 6.00

CCn1nccc1C(=O)N[C@H](c1cn2nc(C[C@H]3C[C@@H](C)CNC3=O)c(C3CCOCC3)nc2n1)C1CCC(F)(F)CC1 [Compound 303]
pIC50 (IL-17A/A): > 7.00 | pIC50 (IL-17A/F): < 6.00

CCn1nccc1C(=O)N[C@H](c1cn2nc(C[C@@H]3C[C@@H](C)CNC3=O)c(C3CCOCC3)nc2n1)C1CCC(F)(F)CC1 [Compound 304]
pIC50 (IL-17A/A): > 7.00 | pIC50 (IL-17A/F): < 6.00

CCn1nccc1C(=O)N[C@H](c1cn2nc(C[C@H]3C[C@H](C(F)(F)F)CNC3=O)c(N3CCO[C@H](C)C3)nc2n1)[C@@H]1CCCC(F)(F)C1 [Compound 305, N—((S)—((R)-3,3-difluorocyclohexyl)(3-((R)-2-methylmorpholino)-2-(((3R,5S)-2-oxo-5-(trifluoromethyl)piperidin-3-yl)methyl)imidazo[1,2-b][1,2,4]triazin-6-yl)methyl)-1-ethyl-1H-pyrazole-5-carboxamide]
pIC50 (IL-17A/A): > 7.00 | pIC50 (IL-17A/F): > 7.00

CCn1nccc1C(=O)N[C@H](c1cn2nc(C[C@H]3C[C@H](C(F)(F)F)CNC3=O)c(N3CCO[C@@H](C)C3)nc2n1)[C@@H]1CCCC(F)(F)C1 [Compound 306, N—((S)—((R)-3,3-difluorocyclohexyl)(3-((S)-2-methylmorpholino)-2-(((3R,5S)-2-oxo-5-(trifluoromethyl)piperidin-3-yl)methyl)imidazo[1,2-b][1,2,4]triazin-6-yl)methyl)-1-ethyl-1H-pyrazole-5-carboxamide]
pIC50 (IL-17A/A): > 7.00 | pIC50 (IL-17A/F): 6.00 to 7.00

C[C@@H]1CN(c2nc3nc([C@@H](NC(=O)c4ccnn4C)[C@@H]4CCCC(F)(F)C4)cn3nc2C[C@H]2C[C@@H](C(F)(F)F)CNC2=O)CCO1 [Compound 307, N—((S)—((R)-3,3-difluorocyclohexyl)(3-((R)-2-methylmorpholino)-2-(((3R,5R)-2-oxo-5-(trifluoromethyl)piperidin-3-yl)methyl)imidazo[1,2-b][1,2,4]triazin-6-yl)methyl)-1-methyl-1H-pyrazole-5-carboxamide]
pIC50 (IL-17A/A): > 7.00 | pIC50 (IL-17A/F): > 7.00

C[C@H]1CN(c2nc3nc([C@@H](NC(=O)c4ccnn4C)[C@@H]4CCCC(F)(F)C4)cn3nc2C[C@H]2C[C@@H](C(F)(F)F)CNC2=O)CCO1 [Compound 308, N—((S)—((R)-3,3-difluorocyclohexyl)(3-((S)-2-methylmorpholino)-2-(((3R,5R)-2-oxo-5-(trifluoromethyl)piperidin-3-yl)methyl)imidazo[1,2-b][1,2,4]triazin-6-yl)methyl)-1-methyl-1H-pyrazole-5-carboxamide]
pIC50 (IL-17A/A): > 7.00 | pIC50 (IL-17A/F): 6.00 to 7.00

C[C@@H]1CN(c2nc3nc([C@@H](NC(=O)c4ccnn4C)[C@@H]4CCCC(F)(F)C4)cn3nc2C[C@H]2C[C@H](C(F)(F)F)CNC2=O)CCO1 [Compound 309, N—((S)—((R)-3,3-difluorocyclohexyl)(3-((R)-2-methylmorpholino)-2-(((3R,5S)-2-oxo-5-(trifluoromethyl)piperidin-3-yl)methyl)imidazo[1,2-b][1,2,4]triazin-6-yl)methyl)-1-methyl-1H-pyrazole-5-carboxamide]
pIC50 (IL-17A/A): > 7.00 | pIC50 (IL-17A/F): 6.00 to 7.00

C[C@H]1CN(c2nc3nc([C@@H](NC(=O)c4ccnn4C)[C@@H]4CCCC(F)(F)C4)cn3nc2C[C@H]2C[C@H](C(F)(F)F)CNC2=O)CCO1 [Compound 310, N—((S)—((R)-3,3-difluorocyclohexyl)(3-((S)-2-methylmorpholino)-2-(((3R,5S)-2-oxo-5-(trifluoromethyl)piperidin-3-yl)methyl)imidazo[1,2-b][1,2,4]triazin-6-yl)methyl)-1-methyl-1H-pyrazole-5-carboxamide]
pIC50 (IL-17A/A): > 7.00 | pIC50 (IL-17A/F): 6.00 to 7.00

Cc1nonc1C(=O)N[C@H](c1cn2nc(C[C@H]3C[C@@H](C(F)(F)F)CNC3=O)c(N3CCN(C)CC3)nc2n1)C1CCC(F)(F)CC1 [Compound 311, N—((S)-(4,4-difluorocyclohexyl)(3-(4-methylpiperazin-1-yl)-2-(((3R,5R)-2-oxo-5-(trifluoromethyl)piperidin-3-yl)methyl)imidazo[1,2-b][1,2,4]triazin-6-yl)methyl)-4-methyl-1,2,5-oxadiazole-3-carboxamide]
pIC50 (IL-17A/A): > 7.00 | pIC50 (IL-17A/F): < 6.00

CCc1nonc1C(=O)N[C@H](c1cn2nc(C[C@H]3C[C@@H](C(F)(F)F)CNC3=O)c(N3CCN(C)CC3)nc2n1)C1CCC(F)(F)CC1 [Compound 312, N—((S)-(4,4-difluorocyclohexyl)(3-(4-methylpiperazin-1-yl)-2-(((3R,5R)-2-oxo-5-(trifluoromethyl)piperidin-3-yl)methyl)imidazo[1,2-b][1,2,4]triazin-6-yl)methyl)-4-ethyl-1,2,5-oxadiazole-3-carboxamide]
pIC50 (IL-17A/A): > 7.00 | pIC50 (IL-17A/F): < 6.00

Cc1nonc1C(=O)N[C@H](c1cn2nc(C[C@H]3C[C@@H](C(F)(F)F)CNC3=O)c(C3CCOCC3)nc2n1)C1CCCCC1 [Compound 313, N—((S)-cyclohexyl(2-(((3R,5R)-2-oxo-5-(trifluoromethyl)piperidin-3-yl)methyl)-3-(tetrahydro-2H-pyran-4-yl)imidazo[1,2-b][1,2,4]triazin-6-yl)methyl)-4-methyl-1,2,5-oxadiazole-3-carboxamide]
pIC50 (IL-17A/A): > 7.00 | pIC50 (IL-17A/F): < 6.00

Cc1nonc1C(=O)N[C@H](c1cn2nc(C[C@H]3C[C@@H](C(F)(F)F)CNC3=O)c(C3CCOCC3)nc2n1)C1CC2(C1)CC(F)(F)C2 [Compound 314, N—((S)-(6,6-difluorospiro[3.3]heptan-2-yl)(2-(((3R,5R)-2-oxo-5-(trifluoromethyl)piperidin-3-yl)methyl)-3-(tetrahydro-2H-pyran-4-yl)imidazo[1,2-b][1,2,4]triazin-6-yl)methyl)-4-methyl-1,2,5-oxadiazole-3-carboxamide]
pIC50 (IL-17A/A): > 7.00 | pIC50 (IL-17A/F): < 6.00

CCc1nonc1C(=O)N[C@H](c1cn2nc(C[C@H]3C[C@@H](C(F)(F)F)CNC3=O)c(C3CCOCC3)nc2n1)C1CC2(C1)CC(F)(F)C2 [Compound 315, N—((S)-(6,6-difluorospiro[3.3]heptan-2-yl)(2-(((3R,5R)-2-oxo-5-(trifluoromethyl)piperidin-3-yl)methyl)-3-(tetrahydro-2H-pyran-4-yl)imidazo[1,2-b][1,2,4]triazin-6-yl)methyl)-4-ethyl-1,2,5-oxadiazole-3-carboxamide]
pIC50 (IL-17A/A): > 7.00 | pIC50 (IL-17A/F): < 6.00
